Assay: Solubility of C16TR in propellants
Type: physicochemical
Settings: HFA134a, HFA227ea, and HFA152a
Description: C16TR is insoluble in all commercially available propellants (HFA134a, HFA227ea, and HFA152a) and requires the use of alcohol co-solvent. When formulated with DSPE-PEG2000 and PEG400 for use with an MDI as well as desirable in vivo performance, the formulation required approximately 10% of alcohol co-solvent. Such a high level of alcohol co-solvent may lead to reduced chemical stability and aerosol performance. Unexpected improvement in chemical stability was observed when a switch from ethanol (industry standard cosolvent) to isopropyl alcohol (novel excipient) was made, as in the C16TR-MDI-W formulation.

CCCCCCCCCCCCCCCCOC(=O)COc1cccc2c1C[C@H]1C[C@@H](O)[C@H](CC[C@@H](O)CCCCC)[C@H]1C2 [Formulation C16TR, Treprostinil palmitil]
solubility in commercially available propellants: insoluble

Reference: patent US20240238309A1, “PHARMACEUTICAL FORMULATIONS OF TREPROSTINIL PRODRUGS AND METHODS OF USE THEREOF” (Insmed Incorporated, priority 2020, published 2024)
